Key:
[1] = target: T1, Choline kinase alpha (ChoK) (Homo sapiens, UniProt P35790); assay: […]-choline phosphorylation in intact MDA-MB-231 cells, […] h; assay type: cell-based
[2] = target: T1, Choline kinase alpha (ChoK); assay: […]-choline phosphorylation in MDA-MB-231 cells; assay type: cell-based

T1 sequence (P35790 whole entry): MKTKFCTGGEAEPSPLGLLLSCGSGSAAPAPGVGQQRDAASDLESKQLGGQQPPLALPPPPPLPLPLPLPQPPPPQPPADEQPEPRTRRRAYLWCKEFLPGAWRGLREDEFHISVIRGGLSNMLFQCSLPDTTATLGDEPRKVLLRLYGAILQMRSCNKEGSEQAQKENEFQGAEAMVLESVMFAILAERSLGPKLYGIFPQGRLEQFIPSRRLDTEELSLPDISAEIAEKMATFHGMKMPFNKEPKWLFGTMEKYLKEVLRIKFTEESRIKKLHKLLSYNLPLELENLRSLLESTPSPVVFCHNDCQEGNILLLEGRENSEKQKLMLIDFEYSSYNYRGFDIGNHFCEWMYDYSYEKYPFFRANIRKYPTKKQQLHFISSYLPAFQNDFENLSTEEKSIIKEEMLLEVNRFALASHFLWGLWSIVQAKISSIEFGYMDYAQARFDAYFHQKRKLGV

SMILES | IC50 [1] [µM] | IC50 [2] [µM]
CN(C)c1cc[n+](Cc2ccc(CCCCc3ccc(C[n+]4ccc(N(C)C)cc4)cc3)cc2)cc1 [MN58b, 1,1′-((butane-1,4-diylbis(4,1-phenylene))bis(methylene))bis(4-(dimethylamino)pyridin-1-ium) bromide] | 2.3 | –
CC1(C)C(/C=C/C=C/C=C/C=C2\N(CCO)c3ccccc3C2(C)C)=[N+](CCO)c2ccccc21 [JAS239, 1-(2-hydroxyethyl)-2-((1E,3E,5E)-7-((Z/E)-1-(2-hydroxyethyl)-3,3-dimethylindolin-2-ylidene)hepta-1,3,5-trien-1-yl)-3,3-dimethyl-3H-indol-1-ium chloride] | – | 4.6

Reference: article PMC4209917 (Molecular cancer therapeutics, 2014)
